The values below come from patent US12668599B2, “Heterobifunctional compounds and methods of treating disease” (Halda Therapeutics OpCo, Inc., priority 2023, dated 2026).

The test system of one experiment is VCaP cells. In words: Cellular growth inhibition assay for VCaP cells (CellTiter-Glo 2.0, 72 hours). The class given is cell-based, human. The note with it: for GI50: CellTiter-Glo 2.0.
Experiment [1] deals with T-Rex 293 cell line SC3 cells lacking increased expression of androgen receptor protein. In words: Cellular growth inhibition, T-Rex 293 SC3 cells without doxycycline (CellTiter-Glo 2.0, 72 hours). Type of experiment: cell-based. To be noted: T-Rex 293 SC3 cells not exposed to doxycycline (no increased androgen receptor expression).
Experiment [2] concerns T-Rex 293 cell line SC3 cells having increased expression of androgen receptor protein due to exposure to doxycycline. Briefly: Cellular growth inhibition, T-Rex 293 SC3 cells with doxycycline-induced androgen receptor (CellTiter-Glo 2.0, 72 hours). Type of experiment: cell-based. The note with it: for GI50: T-Rex 293 SC3 cells with 10 ng/ml doxycycline (increased androgen receptor expression), 72 hours, CellTiter-Glo 2.0.

Turning to `COc1cc(O[C@H]2CC[C@H](NC(=O)c3ccc(N4CCC5(CCN(c6ccc(C7=N[C@@H](C)c8nnc(C)n8-c8sc(C)c(C)c87)cc6C(C)C)CC5)C4)nn3)CC2)ccc1C#N` [Compound I-105, N-[4-(4-cyano-3-methoxy-phenoxy)cyclohexyl]-6-[8-[2-isopropyl-4-[(9S)-4,5,9,13-tetramethyl-3-thia1,8,11,12-tetrazatricyclo[8.3.0.0^2,6]trideca-2 (6),4,7,10,12-pentaen-7-yl]phenyl]-2,8-diazaspiro[4.5]decan-2-yl]pyridazine-3-carboxamide], the GI50 is 500 to 1500 nM in the experiment on VCaP cells (Homo sapiens, VCaP, 72 h); more than 3000 nM in experiment [1] (72 h); less than 500 nM in experiment [2].

With `COc1cc(O[C@H]2CC[C@H](NC(=O)c3ccc(N4C[C@H]5CN(c6ccc(C7=N[C@@H](Cc8ncco8)c8nnc(C)n8-c8sc(C)c(C)c87)cc6)C[C@H]5C4)nn3)CC2)ccc1C#N` [Compound I-106, 6-[(3aR,6aS)-2-[4-[(9S)-4,5,13-trimethyl-9-(oxazol-2-ylmethyl)-3-thia-1,8,11,12-tetrazatricyclo[8.3.0.0^2,6]trideca-2 (6),4,7,10,12-pentaen-7-yl]phenyl]-1,3,3a,4,6,6a-hexahydropyrrolo[3,4-c]pyrrol-5-yl]-N-[4-(4-cyano-3-methoxy-phenoxy)cyclohexyl]pyridazine-3-carboxamide], the concentration for 50% growth inhibition (GI50) in the experiment on VCaP cells (Homo sapiens, VCaP, 72 h) was less than 500 nM; in experiment [1] (72 h), less than 500 nM; in experiment [2], less than 500 nM.

Consider `COc1cc(O[C@H]2CC[C@H](NC(=O)c3ccc(N4CC(F)(F)C5(CCN(c6ccc(C7=N[C@@H](C)c8nnc(C)n8-c8sc(C)c(C)c87)cc6)CC5)C4)nn3)CC2)ccc1C#N` [Compound I-107, N-[4-(4-cyano-3-methoxy-phenoxy)cyclohexyl]-6-[4,4-difluoro-8-[4-[(9S)-4,5,9,13-tetramethyl-3-thia-1,8,11,12-tetrazatricyclo[8.3.0.0^2,6]trideca-2 (6),4,7,10,12-pentaen-7-yl]phenyl]-2,8-diazaspiro[4.5]decan-2-yl]pyridazine-3-carboxamide], for which the GI50 in the experiment on VCaP cells (Homo sapiens, VCaP, 72 h) is less than 500 nM; in experiment [1] (72 h), less than 500 nM; in experiment [2], less than 500 nM.

As to `COc1cc(O[C@H]2CC[C@H](NC(=O)c3ccc(-n4cc5c(c4)CN(c4ccc(C6=N[C@@H](C)c7nnc(C)n7-c7sc(C)c(C)c76)cc4)C5)nn3)CC2)ccc1C#N` [Compound I-108], the GI50 in the experiment on VCaP cells (Homo sapiens, VCaP, 72 h) was less than 500 nM; in experiment [1] (72 h), less than 500 nM; in experiment [2] it was less than 500 nM.

With `COc1cc(O[C@H]2CC[C@H](NC(=O)c3ccc(N4CC5(CC(C#Cc6ccc(C7=NC(Cc8ncco8)c8nnc(C)n8-c8sc(C)c(C)c87)c(F)c6)C5)C4)nn3)CC2)ccc1C#N` (some centres unmarked) [Compound I-112], the 50% growth inhibitory concentration (GI50) with VCaP cells (Homo sapiens, VCaP, 72 h) was less than 500 nM; in experiment [1] (72 h), more than 3000 nM; in experiment [2], less than 500 nM.

For `COc1cc(O[C@H]2CC[C@H](NC(=O)c3ccc(N4CCC5(CCN(c6ccc(C7=N[C@@H](C)c8nnc(C)n8-c8sc(C)c(C)c87)cc6)CC5(F)F)C4)nn3)CC2)ccc1C#N` (some centres unmarked) [Compound I-113], the GI50 with VCaP cells (Homo sapiens, VCaP, 72 h) was less than 500 nM; in experiment [1] (72 h), less than 500 nM; in experiment [2], less than 500 nM.

As to `COc1cc(O[C@H]2CC[C@H](NC(=O)c3ccc(N4CC5(CCC5)C5(CCN(c6ccc(C7=N[C@@H](C)c8nnc(C)n8-c8sc(C)c(C)c87)cc6)CC5)C4)nn3)CC2)ccc1C#N` [Compound I-114], the GI50 in the experiment on VCaP cells (Homo sapiens, VCaP, 72 h) was less than 500 nM; in experiment [1] (72 h), less than 500 nM; in experiment [2], less than 500 nM.

Regarding `COc1cc(O[C@H]2CC[C@H](NC(=O)c3ccc(N4CCC5(CCN(c6ccc(C7=N[C@@H](C)c8nnc(C)n8-c8sc(C)c(C)c87)cc6)CC5(F)F)C4)nn3)CC2)ccc1C#N` (some centres unmarked) [Compound I-116], the concentration for 50% growth inhibition (GI50) (with VCaP cells (72 hours); in experiment [1]; in experiment [2]) was less than 500 nM in each case.

`COc1cc(O[C@H]2CC[C@H](NC(=O)c3ccc(N4CC(F)(F)C5(CCN(c6ccc(C7=N[C@@H](C)c8nnc(C)n8-c8sc(C)c(C)c87)cc6)C5)C4)nn3)CC2)ccc1C#N` (some centres unmarked) [Compound I-117]: the GI50 is less than 500 nM with VCaP cells (Homo sapiens, VCaP, 72 h); less than 500 nM in experiment [1] (72 h); less than 500 nM in experiment [2].

For the compound `COc1cc(O[C@H]2CC[C@H](NC(=O)c3ccc(N4C[C@]5(C)CN(c6ccc(C7=N[C@@H](Cc8ncco8)c8nnc(C)n8-c8sc(C)c(C)c87)cc6)C[C@]5(C)C4)nn3)CC2)ccc1C#N` [Compound I-118], the concentration for 50% growth inhibition (GI50) in the experiment with VCaP cells (Homo sapiens, VCaP, 72 h) is less than 500 nM; in experiment [1] (72 h), less than 500 nM; in experiment [2] it was less than 500 nM.

For the compound `COc1cc(O[C@H]2CC[C@H](NC(=O)c3ccc(N4C[C@]5(F)CN(c6ccc(C7=N[C@@H](Cc8ncco8)c8nnc(C)n8-c8sc(C)c(C)c87)cc6)C[C@]5(F)C4)nn3)CC2)ccc1C#N` [Compound I-119], the GI50 in the experiment on VCaP cells (Homo sapiens, VCaP, 72 h) is less than 500 nM; in experiment [1] (72 h), less than 500 nM; in experiment [2], less than 500 nM.

On to `COc1cc(O[C@H]2CC[C@H](NC(=O)c3ccc(N4CC(C)(C)C5(CCN(c6ccc(C7=N[C@@H](C)c8nnc(C)n8-c8sc(C)c(C)c87)cc6)CC5)C4)nn3)CC2)ccc1C#N` [Compound I-120], for which the GI50 in the experiment with VCaP cells (Homo sapiens, VCaP, 72 h) is less than 500 nM; in experiment [1] (72 h), less than 500 nM; in experiment [2], less than 500 nM.

On to `COc1cc(O[C@H]2CC[C@H](NC(=O)c3ccc(N4CCC5(CCC(c6ccc(C7=N[C@@H](C)c8nnc(C)n8-c8sc(C)c(C)c87)cc6C(C)C)CC5)C4)nn3)CC2)ccc1C#N` (some centres unmarked) [Compound I-121], for which the 50% growth inhibitory concentration (GI50) in the experiment on VCaP cells (Homo sapiens, VCaP, 72 h) was less than 500 nM; in experiment [1] (72 h) it was more than 3000 nM; in experiment [2], less than 500 nM.

As for `COc1cc(O[C@H]2CC[C@H](NC(=O)c3ccc(N4CCC5(CCC(c6ccc(C7=N[C@@H](C)c8nnc(C)n8-c8sc(C)c(C)c87)cc6C(C)C)CC5)C4)nn3)CC2)ccc1C#N` (some centres unmarked) [Compound I-122], the concentration for 50% growth inhibition (GI50) is 500 to 1500 nM in the experiment with VCaP cells (72 hours), 1500 to 3000 nM in experiment [1] and less than 500 nM in experiment [2].

For `COc1cc(O[C@H]2CC[C@H](NC(=O)c3ccc(N4CC5(CC(C#Cc6ccc(C7=N[C@@H](Cc8ncco8)c8nnc(C)n8-c8sc(C)c(C)c87)cc6)C5)C4)nn3)CC2)ccc1C#N` [Compound I-124, N-[(1r,4r)-4-(4-cyano-3-methoxy-phenoxy)cyclohexyl]-6-[6-[2-[4-[(9S)-4,5,13-trimethyl-9-(oxazol-2-ylmethyl)-3-thia-1,8,11,12-tetrazatricyclo[8.3.0.0^2,6]trideca-2 (6),4,7,10,12-pentaen-7-yl]phenyl]ethynyl]-2-azaspiro[3.3]heptan-2-yl]pyridazine-3-carboxamide], the “Ratio of GI50's” value in the experiment with VCaP cells (GI50 of the top compound in the pair divided by GI50 of the lower compound) was determined as 1; in experiment [2] (GI50 of the top compound in the pair divided by GI50 of the lower compound, T-Rex 293 SC3 cells with doxycycline-induced androgen receptor), 1. In addition, the GI50 in the experiment on VCaP cells (Homo sapiens, VCaP, 72 h) is less than 500 nM; in experiment [1] (72 h), less than 500 nM; in experiment [2], less than 500 nM.

For `COc1cc(O[C@H]2CC[C@H](NC(=O)c3ccc(N4CCC5(CC4)CC(Cc4ccc(C6=N[C@@H](Cc7ncco7)c7nnc(C)n7-c7sc(C)c(C)c76)c(F)c4)C5)nn3)CC2)ccc1C#N` [Compound I-125, N-[4-(4-cyano-3-methoxy-phenoxy)cyclohexyl]-6-[2-[[3-fluoro-4-[(9S)-4,5,13-trimethyl-9-(oxazol-2-ylmethyl)-3-thia-1,8,11,12-tetrazatricyclo[8.3.0.0^2,6]trideca-2 (6),4,7,10,12-pentaen-7-yl]phenyl]methyl]-7-azaspiro[3.5]nonan-7-yl]pyridazine-3-carboxamide], the GI50 in the experiment on VCaP cells (Homo sapiens, VCaP, 72 h) was less than 500 nM; in experiment [1] (72 h), less than 500 nM; in experiment [2], less than 500 nM.

As to `COc1cc(O[C@H]2CC[C@H](NC(=O)c3ccc(N4CCC5(CCN(c6ccc(C7=NC(Cc8ncco8)c8nnc(C)n8-c8sc(C)c(C)c87)cc6C(F)(F)F)CC5)C4)nn3)CC2)ccc1C#N` (some centres unmarked) [Compound I-126], the figures for the GI50 (with VCaP cells (72 hours); in experiment [1]; in experiment [2]) were more than 3000 nM, more than 3000 nM and less than 500 nM, respectively.

On to `COc1cc(O[C@H]2CC[C@H](NC(=O)c3ccc(N4CCC5(CC4)CC(Oc4ccc(C6=N[C@@H](Cc7ncco7)c7nnc(C)n7-c7sc(C)c(C)c76)c(F)c4)C5)nn3)CC2)ccc1C#N` [Compound I-128, N-[4-(4-cyano-3-methoxy-phenoxy)cyclohexyl]-6-[2-[3-fluoro-4-[(9S)-4,5,13-trimethyl-9-(oxazol-2-ylmethyl)-3-thia-1,8,11,12-tetrazatricyclo[8.3.0.0^2,6]trideca-2 (6),4,7,10,12-pentaen-7-yl]phenoxy]-7-azaspiro[3.5]nonan-7-yl]pyridazine-3-carboxamide], for which the concentration for 50% growth inhibition (GI50) is less than 500 nM with VCaP cells (Homo sapiens, VCaP, 72 h); less than 500 nM in experiment [1] (72 h); less than 500 nM in experiment [2].

`COc1cc(O[C@H]2CC[C@H](NC(=O)c3ccc(N4CCC5(CCN(c6ccc(C7=NC(Cc8ncco8)c8nnc(C)n8-c8sc(C)c(C)c87)cc6C(F)(F)F)CC5)C4)nn3)CC2)ccc1C#N` (some centres unmarked) [Compound I-129]: the concentration for 50% growth inhibition (GI50) (in the experiment with VCaP cells (72 hours); in experiment [1]; in experiment [2]) was less than 500 nM in each case.

Turning to `COc1cc(O[C@H]2CC[C@H](NC(=O)c3ccc(N4CCC5(CC4)CC(Oc4ccc(C6=N[C@@H](Cc7ncco7)c7nnc(C)n7-c7sc(C)c(C)c76)cc4F)C5)nn3)CC2)ccc1C#N` [Compound I-133], the 50% growth inhibitory concentration (GI50) is less than 500 nM in the experiment with VCaP cells (Homo sapiens, VCaP, 72 h); less than 500 nM in experiment [1] (72 h); less than 500 nM in experiment [2].

Consider `COc1cc(O[C@H]2CC[C@H](NC(=O)c3ccc(N4CCC5(CCN(c6ccc(C7=NC(Cc8ncco8)c8nnc(C)n8-c8sc(C)c(C)c87)c(C(F)(F)F)c6)CC5)C4)nn3)CC2)ccc1C#N` (some centres unmarked) [Compound I-136], for which the values for the GI50 (with VCaP cells (72 hours); in experiment [1] (72 h); in experiment [2]) were more than 3000 nM, more than 3000 nM and less than 500 nM, respectively.

For the compound `COc1cc(O[C@H]2CC[C@H](NC(=O)c3ccc(N4CCC5(CCN(c6ccc(C7=NC(Cc8ncco8)c8nnc(C)n8-c8sc(C)c(C)c87)c(C(F)(F)F)c6)CC5)C4)nn3)CC2)ccc1C#N` (some centres unmarked) [Compound I-137], the results for the concentration for 50% growth inhibition (GI50) (with VCaP cells (72 hours); in experiment [1]; in experiment [2]) were less than 500 nM, more than 3000 nM and less than 500 nM, respectively.
